Results reported in PubChem BioAssay AID1949 (Southern Research Institute, 2009).
≈ marks a conversion by molar mass, not a printed value. Records with an inconclusive call do not appear. Calls of active or inactive are those of the source. No rule for the calls is given here.

Tested on: M. tuberculosis H37Rv growth inhibition
Test: Confirmatory growth inhibition assay against Mycobacterium tuberculosis H37Rv, potency (AID 1949);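 also: bacteria grown 7 days with compound before Alamar blue readout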

SMILES | IC50
Cc1cc(=O)oc2cc(OCC(=O)OC3CCCCC3)ccc12 | 1.47 µg/mL (≈ 4.65 µM)
CC(C)(C)c1cnc(NC(=O)c2ccccc2O)s1 | 1.06 µg/mL (≈ 3.84 µM)
Cc1ccc(-c2nnc(N3CCN(C(=O)c4ccc(Cl)cc4)CC3)c3ccccc23)cc1 | 3.65 µg/mL (≈ 8.24 µM)
CCCC1(O)CC(c2ccc(Cl)cc2)NC(c2ccc(Cl)cc2)C1C (centres undefined) | 2.34 µg/mL (≈ 6.18 µM)
Cc1ccc2nc(NCc3ccccc3)[nH]c2c1 | 1.49 µg/mL (≈ 6.28 µM)
Cc1ccc(O)c(C2=NNC(c3ccc(Cl)cc3)C2)c1 (centres undefined) | 4.76 µg/mL (≈ 16.6 µM)
CC(C)COc1ccc(CNC(=S)NCc2ccccc2)cc1 | 4.39 µg/mL (≈ 13.4 µM)
COc1ccccc1/C=C/c1nn2c(-c3ccc(C)cc3)nnc2s1 | 45.6 µg/mL (≈ 131 µM)
O=C(CC(O)(C(F)(F)F)C(F)(F)F)Nc1cc(Cl)ccc1Cl | 5.84 µg/mL (≈ 15.8 µM)
CN1CCN(c2nc(N3CCCc4ccccc43)nc(N3CCCc4ccccc43)n2)CC1 | 5.33 µg/mL (≈ 12.1 µM)
Cn1nc([N+](=O)[O-])nc1Sc1nnc(-c2cccnc2)o1 | 2.49 µg/mL (≈ 8.16 µM)
CCOC(=O)C1=C(C)N=c2s/c(=C\c3ccc([N+](=O)[O-])o3)c(=O)n2C1c1ccc(OCC)cc1 (centres undefined) | > 50 µg/mL (inactive)
O=C(COc1ccc(C(=O)NCc2ccccc2)cc1)OC1CCCCC1 | 0.73 µg/mL (≈ 1.99 µM)
Oc1c(CN2CCN(c3ccc(F)cc3)CC2)cc(Cl)c2cccnc12 | 1.07 µg/mL (≈ 2.88 µM)
C=CCc1cc(/C=C/[N+](=O)[O-])cc(OCC)c1O | 5.69 µg/mL (≈ 22.8 µM)
Cc1cc(OCCCCn2ccnc2)cc(C(C)C)c1 | 2.03 µg/mL (≈ 7.45 µM)
C=CCOc1c(Cl)cc(/C=C/[N+](=O)[O-])cc1OCC | 23.4 µg/mL (≈ 82.5 µM)
O=C(CSc1ccc(Br)cc1)Nc1ccccc1F | 1.6 µg/mL (≈ 4.7 µM)
CCC(C)c1ccc(O)c(NC(=S)NC(=O)c2cncc(Br)c2)c1 (centres undefined) | < 0.1 µg/mL
CC(NC(=O)Nc1cccc(C(F)(F)F)c1)C1CC2CCC1C2 (centres undefined) | < 0.1 µg/mL
COC(=O)CSc1nnc(-c2ccc(Cl)cc2)o1 | < 0.1 µg/mL
Cc1ccc(CSCC(=O)Nc2ccccc2)cc1 | 2.88 µg/mL (≈ 10.6 µM)
Cc1cc(C)nc(/N=C(\N)Nc2ccccc2Sc2ccccc2)n1 | > 50 µg/mL (inactive)
O=C(Nc1ccc(OCC(F)(F)C(F)F)c(C(F)(F)F)c1)c1ccccc1O | 5.26 µg/mL (≈ 12.8 µM)

SMILES | IC50
O=C(CC1COc2ccccc2O1)Nc1ccc(Br)cc1 (centres undefined) | 11 µg/mL (≈ 31.6 µM)
O=C(c1ccc(Cl)cc1)c1ccc(CSc2nnc(-c3ccccc3)o2)o1 | < 0.1 µg/mL
CCn1nnc(NC(=O)c2sc3ccccc3c2Cl)n1 | 3.02 µg/mL (≈ 9.81 µM)
CCOC(=O)Cc1c(C)nc2c(-c3ccc(Cl)cc3)c[nH]n2c1=O | 1.95 µg/mL (≈ 5.64 µM)
COC(=O)C(C)Oc1ccc2c(=O)c(-c3ccc(Br)cc3)c(C)oc2c1 (centres undefined) | 2.42 µg/mL (≈ 5.8 µM)
Cc1ccc(C(C)C)cc1OCCCCn1ccnc1 | 1.88 µg/mL (≈ 6.9 µM)
Cc1ccccc1Nc1nc(-c2ccccn2)cs1 | < 0.1 µg/mL
CSc1nsc(SCC(=O)c2ccccc2)n1 | 4.45 µg/mL (≈ 15.8 µM)
CC(C)CCNC(=O)C(=O)Nc1ccccc1Cl | 0.84 µg/mL (≈ 3.13 µM)
CC1CCc2sc3ncnc(NCCc4ccccc4)c3c2C1 (centres undefined) | 1.85 µg/mL (≈ 5.72 µM)
O=C(CCN1C(=O)C2C3C=CC(C4CC34)C2C1=O)Oc1cccc2cccnc12 (centres undefined) | 1.46 µg/mL (≈ 3.76 µM)
Cc1ccc(OCC(=O)c2ccc(C)cc2)cc1 | 50 µg/mL (≈ 208 µM)
CCn1cc(C(=O)O)c(=O)c2cc(F)c(N3CCN(C(=O)Nc4ccccc4)CC3)cc21 | > 50 µg/mL (inactive)
CC(C)Cc1nc2sc3c(c2c(=O)o1)CCCCC3 | 5.69 µg/mL (≈ 20.5 µM)
OC(COCCC12CC3CC(CC(C3)C1)C2)CN1CCc2ccccc2C1 (centres undefined) | 3.49 µg/mL (≈ 9.44 µM)
Cc1cc(N)cc(-c2nc3ccccc3o2)c1O | 16.4 µg/mL (≈ 68.4 µM)
COc1cc(C(=O)Oc2ccc3c(c2)CCCC3)cc(OC)c1OC | > 50 µg/mL (inactive)
O=[N+]([O-])c1cccc(NC(=S)Nc2ccc(Cl)c(C(F)(F)F)c2)c1 | 2.62 µg/mL (≈ 6.97 µM)
CCN(CC)CCNc1nc(-c2cccc(Cl)c2)nc2ccccc12 | 46 µg/mL (≈ 130 µM)
CCOc1ccc(OCc2ccc(C(=O)Nc3cccc(C)n3)o2)cc1 | 7.11 µg/mL (≈ 20.2 µM)
CCCCN1CCC(O)(c2ccccc2)C(C(=O)c2ccccc2)C1 (centres undefined) | 11.4 µg/mL (≈ 33.9 µM)
O=C(Nc1ccc(Cl)c(C(F)(F)F)c1)c1csc2c1CCCC2 | 2.66 µg/mL (≈ 7.39 µM)
Cc1ccc2oc(=O)n(CCCOc3ccc(Cl)cc3)c2c1 | 2.98 µg/mL (≈ 9.38 µM)
CCOc1ccccc1C(=O)Nc1ccccc1O | 8.93 µg/mL (≈ 34.7 µM)

SMILES | IC50
COc1cccc(-n2nnnc2S(=O)(=O)Cc2ccccc2)c1 | 0.38 µg/mL (≈ 1.15 µM)
Cc1ccc(-c2nn(-c3ccccc3)cc2CNCc2ccccc2)cc1 | 1.11 µg/mL (≈ 3.14 µM)
O=[N+]([O-])c1c(Sc2ncnc3ccccc23)ccc2nsnc12 | 22.2 µg/mL (≈ 65.1 µM)
COc1cc(CNc2ccc(F)c(Cl)c2)ccc1OCC(=O)NC1CCCCC1 | 5.53 µg/mL (≈ 13.1 µM)
O=C(Oc1ccccc1)c1cccc2cccnc12 | 0.99 µg/mL (≈ 3.97 µM)
CC1CCC(C(=O)c2c(O)c3ccccc3oc2=O)CC1 (centres undefined) | > 50 µg/mL (inactive)
CCN(CC)c1ccc(NC(=O)C23CC4CC(CC(C4)C2)C3)cc1 | > 50 µg/mL (inactive)
COC(=O)COc1ccc2c(=O)c(Oc3ccccc3F)c(C)oc2c1C | 6.55 µg/mL (≈ 17.6 µM)
COc1ccc(C2(C(=O)Nc3ccc(Br)cc3)CCCC2)cc1 | 1.37 µg/mL (≈ 3.66 µM)
Cc1ccc(Oc2nc(-c3cccnc3)nc3ccccc23)cc1C | 15.8 µg/mL (≈ 48.4 µM)
COC(=O)c1ccc(OCC(=O)Nc2ccccc2F)cc1 | 0.55 µg/mL (≈ 1.81 µM)
O=C(N=Nc1c(O)[nH]c2ccccc12)c1ccc(Cl)cc1 | 46.7 µg/mL (≈ 156 µM)
O=C(CCc1nc(-c2ccc(Cl)cc2)no1)OCc1ccc(Br)cc1 | > 50 µg/mL (inactive)
O=C(Nc1cccc2cccnc12)c1ccc([N+](=O)[O-])o1 | 8.91 µg/mL (≈ 31.5 µM)
COC(=O)Cc1c(C)c2ccc(OCC(=O)Nc3cc(C)cc(C)c3)cc2oc1=O | 0.2 µg/mL (≈ 0.488 µM)
c1ccc(OCCCCn2cnc3ccccc32)cc1 | 16 µg/mL (≈ 60.2 µM)
C#CCOc1c(Cl)cc(/C=C/[N+](=O)[O-])cc1OC | 29.4 µg/mL (≈ 110 µM)
COc1cc(NC(=O)c2ccc(Br)o2)ccc1NC(=O)c1ccccc1Cl | 6.8 µg/mL (≈ 15.1 µM)
CC1CCc2c(sc3ncnc(Nc4ccc(OCc5ccccc5)cc4)c23)C1 (centres undefined) | > 50 µg/mL (inactive)
COc1ccc(OCC(=O)Nc2cccc(-c3nc4ccccc4c(=O)o3)c2)cc1 | 37.1 µg/mL (≈ 92.2 µM)
O=C(NC(Nc1ccc([N+](=O)[O-])cc1)C(Cl)(Cl)Cl)c1cccc(I)c1 (centres undefined) | 7.08 µg/mL (≈ 13.8 µM)
Nc1cc(Oc2ccc(O)c(N)c2)ccc1O | 6.13 µg/mL (≈ 26.4 µM)
O=C1c2cccc3cccc(c23)C(=O)N1CCN1CCN(CC(O)COc2ccccc2Cl)CC1 (centres undefined) | 2.93 µg/mL (≈ 5.93 µM)
CCC(C)c1ccccc1OCC(=O)Nc1ccc(Cl)cc1 (centres undefined) | 4.68 µg/mL (≈ 14.7 µM)

SMILES | IC50
CC1=CC(C)(C)N2C(=O)C(=O)c3cc(OC(=O)c4ccccc4C)cc1c32 | 8.23 µg/mL (≈ 22.8 µM)
O=C(CCNc1ccc(Cl)c(C(F)(F)F)c1)c1cccs1 | 3.17 µg/mL (≈ 9.5 µM)
Cc1cc(C)nc(/N=C(\N)Nc2cc(Cl)ccc2Cl)n1 | 12.3 µg/mL (≈ 39.7 µM)
O=C(Nc1nccs1)c1ccc(CSc2ccccc2)o1 | 3.09 µg/mL (≈ 9.77 µM)
COc1ccc(CN2CCC(N(CCc3ccccc3)Cc3ccccc3)CC2)c(OC)c1 | 2.61 µg/mL (≈ 5.87 µM)
Clc1ccc(OCCn2ccnc2)cc1Cl | 7.53 µg/mL (≈ 29.3 µM)
CCN(CC)c1ccc(NC(=S)NCC(C)C)cc1 | 5.43 µg/mL (≈ 19.4 µM)
COC(=O)COc1ccc2c(=O)c(-c3ccccc3Cl)c(C)oc2c1 | 0.42 µg/mL (≈ 1.17 µM)
Cc1cc(Cl)ccc1OCC(O)CNC(C)c1ccccc1 (centres undefined) | 8.02 µg/mL (≈ 25.1 µM)
Cc1cc(C)cc(NC(=S)NC2CCCC2)c1 | 8.73 µg/mL (≈ 35.1 µM)
O=C(Nc1ccc(Br)c(Cl)c1)c1ccc(F)cc1 | 15.7 µg/mL (≈ 47.8 µM)
CCc1cc(I)ccc1NC(=O)c1ccc([N+](=O)[O-])o1 | 1.61 µg/mL (≈ 4.17 µM)
COc1cccc(Nc2nc(-c3ccccn3)cs2)c1 | 0.17 µg/mL (≈ 0.6 µM)
COc1ccccc1OCCCCN1CCN(C(c2ccccc2)c2ccccc2)CC1 | 8.02 µg/mL (≈ 18.6 µM)
O=C(CNCCN1CCOCC1)Nc1sc2c(c1C(=O)Nc1ccccc1)CCC2 | 2.12 µg/mL (≈ 4.95 µM)
CCOC(=O)C(C)Oc1ccc2c(=O)c(-c3ccc(Br)cc3)coc2c1 (centres undefined) | > 50 µg/mL (inactive)
COc1cccc(C(=O)NC(=S)Nc2ccc(N3CCN(C(=O)c4cccs4)CC3)c(Cl)c2)c1 | 0.76 µg/mL (≈ 1.48 µM)
CCSc1nc2ccccc2n1C(=O)c1ccc(S(=O)(=O)N2CCOCC2)cc1 | > 50 µg/mL (inactive)
COc1cc(Br)cc2cc(C(=O)Nc3ccccc3O)c(=O)oc12 | > 50 µg/mL (inactive)
Cc1ccc(OCC(=O)c2ccc(Cl)cc2)cc1C | 17.6 µg/mL (≈ 64.1 µM)
Cc1cc(NC(=O)CSc2nnc(-c3ccccc3Cl)o2)no1 | 2.43 µg/mL (≈ 6.93 µM)
Cc1ccc(OCC(=O)c2ccccc2)cc1C | 4.92 µg/mL (≈ 20.5 µM)
Cn1c2c(c(=O)n(C)c1=O)C(C(F)(F)F)(C(F)(F)F)N=C(c1ccc(Cl)cc1)N2 | 46.1 µg/mL (≈ 105 µM)
CCn1cc(C(=O)O)c(=O)c2cnc(N3CCN(C(=S)Nc4sc5c(c4C(=O)OC)CCCCCC5)CC3)nc21 | > 50 µg/mL (inactive)

SMILES | IC50
CCc1cc2c(=O)c(-c3ccc(OC)cc3)coc2cc1OCC(=O)OC | 1.19 µg/mL (≈ 3.23 µM)
O=C(Nc1cccc(Cl)c1)Nc1ccc(N2CCOCC2)c(C(F)(F)F)c1 | 3.59 µg/mL (≈ 8.98 µM)
Cn1nc([N+](=O)[O-])nc1Oc1ccc(Br)cc1 | 7.92 µg/mL (≈ 26.5 µM)
CCOC(=O)CSc1nc(C#N)c(SCC(=O)OCC)s1 | 2.29 µg/mL (≈ 6.61 µM)
O=C(CC12CC3CC(CC(C3)C1)C2)Nc1cccc(Cl)c1 | 3.34 µg/mL (≈ 11 µM)
OC(COc1ccc2ccccc2c1)CN1CCCN(CC(O)COc2ccc3ccccc3c2)CC1 (centres undefined) | 0.73 µg/mL (≈ 1.46 µM)
O=c1cc(-c2ccccc2)[nH]n1-c1ccc([N+](=O)[O-])cc1 | 10.8 µg/mL (≈ 38.5 µM)
Cc1nc(SCc2csc(C)n2)c2c3c(sc2n1)CCCC3 | 1.61 µg/mL (≈ 4.63 µM)
CCCc1cc2c(-c3ccccc3)cc(=O)oc2cc1OCC(=O)OC | 5.24 µg/mL (≈ 14.9 µM)
CCOc1ccc(NC(=O)C(C)Oc2ccc(C)c(C)c2)cc1 (centres undefined) | 4.04 µg/mL (≈ 12.9 µM)
COC(=O)COc1ccc2c(=O)c(Oc3ccccc3OC)c(C)oc2c1 | 1.39 µg/mL (≈ 3.75 µM)
COc1ccc(Br)cc1C(=O)Nc1ccc(N2CCN(C)CC2)cc1 | 12.6 µg/mL (≈ 31.1 µM)
CCC(C)NC(=O)c1ccc(NC(=O)C2(c3ccccc3)CCCC2)cc1 (centres undefined) | 1.08 µg/mL (≈ 2.96 µM)
CC1=Nc2c(ccc3cccnc23)C1(C)C | 0.19 µg/mL (≈ 0.904 µM)
CN(C)c1ccc(C(O)(c2ccc(N(C)C)cc2)c2ccc(N(C)C)cc2)cc1 | 0.6 µg/mL (≈ 1.54 µM)
Cn1c(=O)c([N+](=O)[O-])c(Nc2cccc(C(F)(F)F)c2)c2ccccc21 | 15.4 µg/mL (≈ 42.3 µM)
O=C(OCc1nnc(-c2ccccc2)o1)c1cc(-c2cccs2)nc2ccccc12 | 3.03 µg/mL (≈ 7.33 µM)
Cc1cc(Br)c2[nH]c(O)c(N=NC(=O)COc3ccccc3C)c2c1 | 18.7 µg/mL (≈ 46.4 µM)
CCOc1ccc(NC(=O)CSc2nnc(-c3ccccc3Cl)o2)cc1 | 3.35 µg/mL (≈ 8.59 µM)
Cc1cccc(C(=O)NC(=S)N2CCC(C)CC2)c1 | 2.97 µg/mL (≈ 10.7 µM)
Cc1nc2ccccc2n1CC(O)COc1ccc(C2C=CCC2)cc1 (centres undefined) | 1.22 µg/mL (≈ 3.5 µM)
O=C(NC(=S)Nc1ccc(F)cc1)c1ccc(Br)cc1 | 0.95 µg/mL (≈ 2.69 µM)
O=C(Nc1ccc(-c2nc3ccccc3c(=O)o2)cc1)c1ccccc1I | 0.37 µg/mL (≈ 0.79 µM)
